Test results: ChEMBL document CHEMBL1201862, “PubChem BioAssay data set” (2004)
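Growth conditions: 96-well plates. Treatment: test compound, 48 hours, 5 concentrations. Analysis: linear interpolation between bracketing concentrations; unreached endpoints set to highest concentration. The concentration for 50% growth inhibition is given as GI50.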 The source made the active and inactive calls. Cut-off read from the data, not from the text of the source: active = GI50 up to about 1.1 µM and inactive = higher.

Tests used:
Assay in all cases: inhibition of tumour cell growth, NCI panel, 48 h
PC-3 = tested on: PC-3
Hs-578T = tested on: Hs-578T
SF-268 = tested on: SF-268
HCC 2998 = tested on: HCC 2998
LOX IMVI = tested on: LOX IMVI
SNB-19 = tested on: SNB-19
HOP-92 = tested on: HOP-92
SN12C = tested on: SN12C
SK-MEL-5 = tested on: SK-MEL-5
BT-549 = tested on: BT-549
NCI-H226 = tested on: NCI-H226
SK-OV-3 = tested on: SK-OV-3
UACC-62 = tested on: UACC-62
SF-295 = tested on: SF-295
OVCAR-3 = tested on: OVCAR-3
MOLT-4 = tested on: MOLT-4
NCI-H460 = tested on: NCI-H460
IGROV-1 = tested on: IGROV-1
ACHN = tested on: ACHN
HL-60 = tested on: HL-60

Structure (SMILES) | GI50 (PC-3) | GI50 (Hs-578T) | GI50 (SF-268) | GI50 (HCC 2998) | GI50 (LOX IMVI) | GI50 (SNB-19) | GI50 (HOP-92) | GI50 (SN12C) | GI50 (SK-MEL-5) | GI50 (BT-549) | GI50 (NCI-H226) | GI50 (SK-OV-3) | GI50 (UACC-62) | GI50 (SF-295) | GI50 (OVCAR-3) | GI50 (MOLT-4) | GI50 (NCI-H460) | GI50 (IGROV-1) | GI50 (ACHN) | GI50 (HL-60)
Nc1ccccc1SCc1csc(-c2ccc(Cl)cc2)n1 | 19.8 µM (inactive) | 28.2 µM (inactive) | 22.8 µM (inactive) | 16.4 µM (inactive) | 16.9 µM (inactive) | 32.3 µM (inactive) | 21.9 µM (inactive) | 16.6 µM (inactive) | 14.8 µM (inactive) | 24.1 µM (inactive) | 20.7 µM (inactive) | 31.7 µM (inactive) | 20 µM (inactive) | 41.2 µM (inactive) | 20.2 µM (inactive) | 4.39 µM (inactive) | 26.2 µM (inactive) | 23 µM (inactive) | 25.6 µM (inactive) | 3.52 µM (inactive)
Fc1ccc(Oc2nc3ccccc3nc2-c2ccccc2)cc1 | > 100 µM (inactive) | 94.4 µM (inactive) | > 100 µM (inactive) | > 100 µM (inactive) | > 100 µM (inactive) | > 100 µM (inactive) | 76.9 µM (inactive) | > 100 µM (inactive) | > 100 µM (inactive) | 95.3 µM (inactive) | > 100 µM (inactive) | > 100 µM (inactive) | > 100 µM (inactive) | > 100 µM (inactive) | > 100 µM (inactive) | > 100 µM (inactive) | > 100 µM (inactive) | > 100 µM (inactive) | > 100 µM (inactive) | 13.9 µM (inactive)
Cc1ccc(C)n1-c1ccccc1C1C=CN(C(=O)OC(C)(C)C)C=C1 | 25.9 µM (inactive) | 37.8 µM (inactive) | 33.6 µM (inactive) | 17.3 µM (inactive) | 20.5 µM (inactive) | 47.6 µM (inactive) | 37.6 µM (inactive) | 33.6 µM (inactive) | 33.4 µM (inactive) | 32.7 µM (inactive) | 14.1 µM (inactive) | > 100 µM (inactive) | 25.8 µM (inactive) | 30 µM (inactive) | 17.8 µM (inactive) | 21.7 µM (inactive) | 28.2 µM (inactive) | 31.4 µM (inactive) | 32.6 µM (inactive) | 32.7 µM (inactive)
CCOC(=O)C1(Cc2c[nH]c3ccccc23)C(O)CCCN1C(C)=O (stereo not drawn) | > 100 µM (inactive) | > 100 µM (inactive) | > 100 µM (inactive) | > 100 µM (inactive) | > 100 µM (inactive) | > 100 µM (inactive) | > 100 µM (inactive) | – | > 100 µM (inactive) | > 100 µM (inactive) | > 100 µM (inactive) | > 100 µM (inactive) | > 100 µM (inactive) | > 100 µM (inactive) | > 100 µM (inactive) | > 100 µM (inactive) | > 100 µM (inactive) | > 100 µM (inactive) | > 100 µM (inactive) | > 100 µM (inactive)
CC(O)c1cc2c(s1)C(=O)c1c(C(C)O)csc1C2=O (stereo not drawn) | 0.117 µM (active) | 0.318 µM (active) | 0.249 µM (active) | 0.351 µM (active) | 0.075 µM (active) | 0.33 µM (active) | 0.248 µM (active) | 0.138 µM (active) | 0.0233 µM (active) | 0.19 µM (active) | 0.264 µM (active) | 0.401 µM (active) | 0.0589 µM (active) | 0.123 µM (active) | 0.0342 µM (active) | 0.181 µM (active) | 0.0451 µM (active) | 0.152 µM (active) | 0.261 µM (active) | 0.0113 µM (active)
O=C(O)Cc1ccccc1 [PHENYLACETIC ACID] | > 100 µM (inactive) | > 100 µM (inactive) | > 100 µM (inactive) | > 100 µM (inactive) | > 100 µM (inactive) | > 100 µM (inactive) | 11.4 µM (inactive) | > 100 µM (inactive) | > 100 µM (inactive) | > 1000 µM (inactive) | > 100 µM (inactive) | > 100 µM (inactive) | > 100 µM (inactive) | 841 µM (inactive) | > 100 µM (inactive) | > 100 µM (inactive) | > 100 µM (inactive) | > 100 µM (inactive) | > 100 µM (inactive) | > 100 µM (inactive)
Cc1nc(Cl)c2sc(=S)n(-c3ccc(F)cc3)c2n1 | 19.9 µM (inactive) | 1.86 µM (inactive) | 1.81 µM (inactive) | 4.49 µM (inactive) | 1.77 µM (inactive) | 1.88 µM (inactive) | 14.4 µM (inactive) | 5.52 µM (inactive) | 3.04 µM (inactive) | 2.59 µM (inactive) | 17.4 µM (inactive) | 13.2 µM (inactive) | 11.8 µM (inactive) | 10.9 µM (inactive) | 1.94 µM (inactive) | – | 13.7 µM (inactive) | 1.74 µM (inactive) | 13.9 µM (inactive) | 7.16 µM (inactive)
N#CCCN(CCC#N)c1ccc(/C=C2\SC(=S)NC2=O)cc1 | > 100 µM (inactive) | > 100 µM (inactive) | > 100 µM (inactive) | > 100 µM (inactive) | 34.6 µM (inactive) | 33.9 µM (inactive) | 75.9 µM (inactive) | > 100 µM (inactive) | > 100 µM (inactive) | 31.8 µM (inactive) | > 100 µM (inactive) | > 100 µM (inactive) | > 100 µM (inactive) | 39.4 µM (inactive) | > 100 µM (inactive) | > 100 µM (inactive) | > 100 µM (inactive) | > 100 µM (inactive) | 41.5 µM (inactive) | > 100 µM (inactive)
O=C1c2ccccc2C(=O)c2oc(Br)cc21 | 2.26 µM (inactive) | 0.327 µM (active) | 1.87 µM (inactive) | 1.82 µM (inactive) | 0.429 µM (active) | 1.5 µM (inactive) | 2.02 µM (inactive) | 0.953 µM (active) | 0.144 µM (active) | 1.16 µM (inactive) | 1.41 µM (inactive) | 2.14 µM (inactive) | 0.544 µM (active) | 0.269 µM (active) | 1.02 µM (active) | 1.8 µM (inactive) | 0.845 µM (active) | 1.24 µM (inactive) | 1.78 µM (inactive) | 0.378 µM (active)
N#CC1(Nc2ccc(-c3ccc(NC4(C#N)CCCC4)cc3)cc2)CCCC1 | > 100 µM (inactive) | > 100 µM (inactive) | > 100 µM (inactive) | > 100 µM (inactive) | > 100 µM (inactive) | > 100 µM (inactive) | 39.3 µM (inactive) | > 100 µM (inactive) | 59 µM (inactive) | > 100 µM (inactive) | > 100 µM (inactive) | > 100 µM (inactive) | > 100 µM (inactive) | > 100 µM (inactive) | > 100 µM (inactive) | 86.1 µM (inactive) | > 100 µM (inactive) | > 100 µM (inactive) | 34.9 µM (inactive) | > 100 µM (inactive)
